Assay results: ChEMBL document CHEMBL1127927, “Cycloheptimidazole based angiotensin II receptor antagonists. 4,5,6,7-tetrahydro-8-carboxymethylidene cycloheptimidazoles” (Bioorg Med Chem Lett, 1994)

Target: T1, Angiotensin II receptor (AT-1) type-1 (Rattus norvegicus, UniProt P29089+P25095)
T1 sequence (P29089 whole entry): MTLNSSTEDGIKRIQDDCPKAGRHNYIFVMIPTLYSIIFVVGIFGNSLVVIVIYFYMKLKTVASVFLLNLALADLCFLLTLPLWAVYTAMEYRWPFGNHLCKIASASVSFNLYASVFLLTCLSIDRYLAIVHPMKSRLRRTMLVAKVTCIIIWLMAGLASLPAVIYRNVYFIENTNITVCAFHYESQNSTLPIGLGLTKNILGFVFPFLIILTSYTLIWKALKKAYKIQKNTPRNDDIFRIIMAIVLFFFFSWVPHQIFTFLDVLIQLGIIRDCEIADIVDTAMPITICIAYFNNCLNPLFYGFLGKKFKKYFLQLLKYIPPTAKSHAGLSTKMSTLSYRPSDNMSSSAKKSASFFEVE
T1 sequence (P25095 whole entry): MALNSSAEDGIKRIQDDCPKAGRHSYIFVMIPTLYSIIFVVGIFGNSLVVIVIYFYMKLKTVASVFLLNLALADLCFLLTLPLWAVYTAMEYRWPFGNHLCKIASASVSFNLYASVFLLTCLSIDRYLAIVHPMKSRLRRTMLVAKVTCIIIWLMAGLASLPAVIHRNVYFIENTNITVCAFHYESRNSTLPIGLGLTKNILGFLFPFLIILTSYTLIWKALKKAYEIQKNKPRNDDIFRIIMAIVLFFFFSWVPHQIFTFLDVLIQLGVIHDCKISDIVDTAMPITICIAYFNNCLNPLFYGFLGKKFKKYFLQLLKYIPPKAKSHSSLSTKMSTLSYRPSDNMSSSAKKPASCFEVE
Experiment: Inhibition of binding of [125I]- Sar,Ileu-angiotensin to Angiotensin II receptor, type 1 in the radioligand binding assay using rat liver membrane preparations

IC50: 5.45 nM
Structure (SMILES): CCc1nc2c(n1Cc1ccc(-c3ccccc3-c3nn[nH]n3)cc1)/C(=C/C(=O)O)CCCC2
